Experimental data: patent publication US10272095B2 (GlaxoSmithKline Intellectual Property Development Limited, priority 2015, dated 2019)
Where a name gives a salt, the structure may show the parent alone. Read-outs that look alike come from different tables or passages of the source.

Tested on: NQO1 specific enzyme activity in BEAS-2B cells
Assay: BEAS-2B NQO1 MTT assay
Assay type: cell-based
Conditions: NQO1 specific enzyme activity induction in BEAS-2B cells, 48 hours, read-out: EC50
Description: NAD(P)H:quinone oxidoreductase 1 (NQO1), also called DT diaphorase, is a homodimeric FAD-containing enzyme that catalyzes obligatory NAD(P)H-dependent two-electron reductions of quinones and protects cells against the toxic and neoplastic effects of free radicals and reactive oxygen species arising from one-electron reductions. The transcription of NQO1 is finely regulated by NRF2, and thus NQO1 activity is a good marker for NRF2 activation. On day one, frozen BEAS-2B cells (ATCC) are thawed in a water bath, counted, and re-suspended at a concentration of 250,000 cells/mL. Fifty microliters of cells are plated in 384 well black clear-bottomed plates. Plates are incubated at 37° C., 5% CO2 overnight. On day two, plates are centrifuged and 50 nL of compound or controls are added to the cells. Plates are then incubated at 37° C., 5% CO2 for 48 hours. On day four, medium is aspirated from the plate and crude cell lysates are made by adding 13 uL of 1× Cell Signaling Technologies lysis buffer with 1 Complete, Mini, EDTA-free Protease Inhibitor Tablet (Roche) for each 10 mL of lysis buffer. After lysis plates are incubated for 20 minutes at room temperature. Two microliters of lysate are removed for use in Cell Titer Glo assay (Promega) and MTT cocktail is prepared (Prochaska et. al. 1998) for measurement of NQO1 activity. Fifty microliters of MTT cocktail is added to each well, plate is centrifuged, and analyzed on an Envision plate reader (Perkin Elmer) using Absorbance 570 nm label for 30 minutes. Product formation is measured kinetically and the pEC50 of NQO1 specific activity induction is calculated by plotting the change in absorbance (Delta OD/min) versus the log of compound concentration followed by 3-parameter fitting.
EC50s<1 nM (+++++), EC50s 10 nM-1 nM (++++), EC50s 10-100 nM (+++), EC50s 100 nM-1 uM (++), EC50s 1 uM-10 uM (+), EC50s>10 uM (−), or were not determined (ND).

SMILES: Cc1c([C@H](c2ccc3c(c2)[C@H](N2Cc4ncccc4OC(C)(C)C2)CC3)C(C)(C)C(=O)O)ccc2c1nnn2C (racemic) [Example 67, rac-(R)-3-(1,4-Dimethyl-1H-benzo[d][1,2,3]triazol-5-yl)-3-(rac-(S)-3-(2,2-dimethyl-2,3-dihydropyrido[2,34][1,4]oxazepin-4(5H)-yl)-2,3-dihydro-1H-inden-5-yl)-2,2-dimethylpropanoic Acid, Trifluoroacetic Acid Salt]
- EC50 (Homo sapiens, BEAS-2B, 48 h): < 0.001 µM

SMILES: Cc1c([C@H](c2ccc3c(c2)[C@@H](N2Cc4ncccc4OC(C)(C)C2)CC3)C(C)(C)C(=O)O)ccc2c1nnn2C (racemic) [Example 68, rac-(R)-3-(1,4-Dimethyl-1H-benzo[d][1,2,3]triazol-5-yl)-3-(rac-(R)-3-(2,2-dimethyl-2,3-dihydropyrido[2,3-f][1,4]oxazepin-4(5H)-yl)-2,3-dihydro-1H-inden-5-yl)-2,2-dimethylpropanoic acid]
- EC50 (Homo sapiens, BEAS-2B, 48 h): 0.01 to 0.1 µM

SMILES: Cc1c([C@H](c2ccc3c(c2)[C@@H](N2Cc4ccncc4OC(C)(C)C2)CC3)C(C)(C)C(=O)O)ccc2c1nnn2C (racemic) [Example 69, rac-(R)-3-(1,4--1H-benzo[d][1,2,3]triazol-5-yl)-3-(rac-(R)-3-(2,2-dimethyl-2,3-dihydropyrido[4,3-f][1,4]oxazepin-4(5H)-yl)-2,3-dihydro-1H-inden-5-yl)-2,2-dimethylpropanoic acid, Trifluoroacetic acid salt]
- EC50 (Homo sapiens, BEAS-2B, 48 h): < 0.001 µM

SMILES: Cc1c([C@H](c2ccc3c(c2)[C@H](N2Cc4ccncc4OC(C)(C)C2)CC3)C(C)(C)C(=O)O)ccc2c1nnn2C (racemic) [Example 70, rac-(R)-3-(1,4-Dimethyl-1H-benzo[d][1,2,3]triazol-5-yl)-3-(rac-(S)-3-(2,2-dimethyl-2,3-dihydropyrido[4,3-f][1,4]oxazepin-4(5H)-yl)-2,3-dihydro-1H-inden-5-yl)-2,2-dimethylpropanoic acid, Trifluoroacetic acid salt]
- EC50 (Homo sapiens, BEAS-2B, 48 h): 0.001 to 0.01 µM

SMILES: CC[C@@H]1CN([C@@H]2CCc3ccc([C@@H](c4ccc5c(nnn5C)c4C)C(C)(C)C(=O)O)cc32)Cc2cnccc2O1 (relative stereo) [Example 71, rel-(S)-3-(1,4-Dimethyl-1H-benzo[d][1,2,3]triazol-5-yl)-3-(rel-(R)-3-((R)-2-ethyl-2,3-dihydropyrido[3,4-f][1,4]oxazepin-4(5H)-yl)-2,3-dihydro-1H-inden-5-yl)-2,2-dimethylpropanoic acid]
- EC50 (Homo sapiens, BEAS-2B, 48 h): 0.001 to 0.01 µM

SMILES: CC[C@@H]1CN([C@H]2CCc3ccc([C@@H](c4ccc5c(nnn5C)c4C)C(C)(C)C(=O)O)cc32)Cc2cnccc2O1 (relative stereo) [Example 72, rel-(S)-3-(1,4-Dimethyl-1H-benzo[d][1,2,3]triazol-5-yl)-3-(rel-(S)-3-((R)-2-ethyl-2,3-dihydropyrido[3,4-f][1,4]oxazepin-4(5H)-yl)-2,3-dihydro-1H-inden-5-yl)-2,2-dimethylpropanoic acid]
- EC50: 0.001 to 0.01 µM

SMILES: CC[C@@H]1CN([C@@H]2CCc3ccc(C(c4ccc5c(nnn5C)c4C)C(C)(C)C(=O)O)cc32)Cc2cnccc2O1 (relative stereo) [Example 75, rel-(S)-3-(1,4-Dimethyl-1H-benzo[d][1,2,3]triazol-5-yl)-3-(rel-(R)-3-((R)-2-ethyl-2,3-dihydropyrido[3,4-f][1,4]oxazepin-4(5H)-yl)-2,3-dihydro-1H-inden-5-yl)-2,2-dimethylpropanoic acid]
- EC50 (Homo sapiens, BEAS-2B, 48 h): 0.01 to 0.1 µM

SMILES: CC[C@@H]1CN([C@H]2CCc3ccc([C@H](c4ccc5c(nnn5C)c4C)C(C)(C)C(=O)O)cc32)Cc2cnccc2O1 (relative stereo) [Example 76, rel-(R)-3-(1,4-Dimethyl-1H-benzo[d][1,2,3]triazol-5-yl)-3-(rel-(S)-3-((R)-2-ethyl-2,3-dihydropyrido[3,4-f][1,4]oxazepin-4(5H)-yl)-2,3-dihydro-1H-inden-5-yl)-2,2-dimethylpropanoic acid]
- EC50 (Homo sapiens, BEAS-2B, 48 h): 1 to 10 µM

SMILES: CC[C@@H]1CN([C@H]2CCc3ccc([C@H](CC(=O)O)c4ccc5c(nnn5C)c4C)cc32)Cc2ccccc2O1 (relative stereo) [Example 81, rel-(S)-3-(1,4-Dimethyl-1H-benzo[d][1,2,3]triazol-5-yl)-3-(rel-(S)-3-((R)-2-ethyl-2,3-dihydrobenzo[f][1,4]oxazepin-4(5H)-yl)-2,3-dihydro-1H-inden-5-yl)propanoic Acid]
- EC50 (Homo sapiens, BEAS-2B, 48 h): 0.01 to 0.1 µM

SMILES: CC[C@@H]1CN([C@@H]2CCc3ccc([C@H](CC(=O)O)c4ccc5c(nnn5C)c4C)cc32)Cc2ccccc2O1 (relative stereo) [Example 82, rel-(S)-3-(1,4-Dimethyl-1H-benzo[d][1,2,3]triazol-5-yl)-3-(rel-(R)-3-((R)-2-ethyl-2,3-dihydrobenzo[f][1,4]oxazepin-4(5H)-yl)-2,3-dihydro-1H-inden-5-yl)propanoic acid]
- EC50 (Homo sapiens, BEAS-2B, 48 h): 0.01 to 0.1 µM

SMILES: CC[C@@H]1CN([C@@H]2CCc3ccc(C(CC(=O)O)c4ccc5c(nnn5C)c4C)cc32)Cc2ccccc2O1 (relative stereo) [Example 84, rel-(R)-3-(1,4-Dimethyl-1H-benzo[d][1,2,3]triazol-5-yl)-3-(rel-(R)-3-((R)-2-ethyl-2,3-dihydrobenzo[f][1,4]oxazepin-4(5H)-yl)-2,3-dihydro-1H-inden-5-yl)propanoic acid]
- EC50 (Homo sapiens, BEAS-2B, 48 h): 1 to 10 µM

SMILES: CC[C@@H]1CN([C@H]2CCc3ccc([C@@H](c4ccc5c(nnn5C)c4C)C(C)(C)C(=O)O)cc32)Cc2cnccc2O1 (relative stereo) [Example 85, rel-(S)-3-(1,4-Dimethyl-1H-benzo[d][1,2,3]triazol-5-yl)-3-(rel-(S)-3-((R)-2-ethyl-2,3-dihydropyrido[3,4-f][1,4]oxazepin-4(5H)-yl)-2,3-dihydro-1H-inden-5-yl)-2,2-dimethylpropanoic Acid]
- EC50: 0.01 to 0.1 µM

SMILES: Cc1c([C@@H](CC(=O)O)c2ccc3c(c2)[C@H](N2Cc4ccccc4OC(C)(C)C2)CC3)ccc2c1nnn2C (single isomer, unassigned) [Example 41, 3-(1,4-Dimethyl-1H-benzo[d][1,2,3]triazol-5-yl)-3-(3-(2,2-dimethyl-2,3-dihydrobenzo[f][1,4]oxazepin-4(5H)-yl)-2,3-dihydro-1H-inden-5-yl)propanoic Acid, Formic Acid Salt]
- EC50 (Homo sapiens, BEAS-2B, 48 h): 0.001 to 0.01 µM

SMILES: Cc1c([C@H](c2ccc3c(c2)[C@H](N2Cc4ccccc4OC(C)(C)C2)CC3)C(C)(C)C(=O)O)ccc2c1nnn2C (stereo in doubt) [Example 77, rel-(S)-3-(1,4-Dimethyl-1H-benzo[d][1,2,3]triazol-5-yl)-3-(rel-(R)-3-(2,2-dimethyl-2,3-dihydrobenzo[f][1,4]oxazepin-4(5H)-yl)-2,3-dihydro-1H-inden-5-yl)-2,2-dimethylpropanoic Acid]
- EC50 (Homo sapiens, BEAS-2B, 48 h): < 0.001 µM

SMILES: Cc1c([C@H](c2ccc3c(c2)[C@@H](N2Cc4ccccc4OC(C)(C)C2)CC3)C(C)(C)C(=O)O)ccc2c1nnn2C (stereo in doubt) [Example 78, rel-(S)-3-(1,4-Dimethyl-1H-benzo[d][1,2,3]triazol-5-yl)-3-(rel-(S)-3-(2,2-dimethyl-2,3-dihydrobenzo[f][1,4]oxazepin-4(5H)-yl)-2,3-dihydro-1H-inden-5-yl)-2,2-dimethylpropanoic acid]
- EC50 (Homo sapiens, BEAS-2B, 48 h): 0.001 to 0.01 µM

SMILES: Cc1c([C@@H](c2ccc3c(c2)[C@H](N2Cc4ccccc4OC(C)(C)C2)CC3)C(C)(C)C(=O)O)ccc2c1nnn2C (stereo in doubt) [Example 79, rel-(R)-3-(1,4-Dimethyl-1H-benzo[d][1,2,3]triazol-5-yl)-3-(rel-(R)-3(2,2-dimethyl-2,3-dihydrobenzo[f][1,4]oxazepin-4(5H)-yl)-2,3-dihydro-1H-inden-5-yl)-2,2-dimethylpropanoic acid]
- EC50 (Homo sapiens, BEAS-2B, 48 h): 0.001 to 0.01 µM

SMILES: Cc1c([C@@H](c2ccc3c(c2)[C@@H](N2Cc4ccccc4OC(C)(C)C2)CC3)C(C)(C)C(=O)O)ccc2c1nnn2C (stereo in doubt) [Example 80, rel-(R)-3-(1,4-Dimethyl-1H-benzo[d][1,2,3]triazol-5-yl)-3-(rel-(S)-3-(2,2-dimethyl-2,3-dihydrobenzo[f][1,4]oxazepin-4(5H)-yl)-2,3-dihydro-1H-inden-5-yl)-2,2-dimethylpropanoic acid]
- EC50 (Homo sapiens, BEAS-2B, 48 h): 0.1 to 1 µM

SMILES: Cc1c(C(CC(=O)O)c2ccc3c(c2)[C@@H]2[C@@H](CC(=O)N2CC2CCCCC2)C3)ccc2c1nnn2C (stereo partly drawn) [Example 1, 3-[(3aR,8bS)-1-(cyclohexylmethyl)-2-oxo-1H,2H,3H,3aH,4H,8bH-indeno[1,2-b]pyrrol-7-yl]-3-(1,4-dimethyl-1H-1,2,3-benzotriazol-5-yl)propanoic Acid]
- EC50 (Homo sapiens, BEAS-2B, 48 h): 0.1 to 1 µM

SMILES: CCC1CCC(CN2C(=O)CC3Cc4ccc(C(CC(=O)O)c5ccc6c(nnn6C)c5C)cc4C32)CC1 (stereo not shown) [Example 2, 3-(1,4-Dimethyl-1H-1,2,3-benzotriazol-5-yl)-3-{1-[(4-ethylcyclohexyl)methyl]-2-oxo-1H,2H,3H,3aH,4H,8bH-indeno[1,2-b]pyrrol-7-yl}propanoic Acid]
- EC50 (Homo sapiens, BEAS-2B, 48 h): 0.01 to 0.1 µM
